Laboratory results as given in the supplement of paper PMC11061612.

Legend:
Assay in all cases: Bliss excess, mean over the matrix (fraction); higher = more synergy
A204 (Rhabdomyosarcoma) = tested on: A204 (Rhabdomyosarcoma)
Method in brief: (§1)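 After 24 hours at 37°C and 5% CO2 in 1536-well plates, cells in DMEM/F12 or RPMI plus 10% FBS received two-drug dose matrices for 72 hours. Viability came from CellTiter-Glo 2.0 luminescence and was scaled as inhibition, anchored at 0 by vehicle wells and at 1 by blank wells. Combination Emax is taken as the second-highest inhibition in the matrix, and Bliss excess as the observed combination effect less EA + EB − EA·EB, with EA and EB the single-agent effects.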

[1] = tested on: CAL-27 (Oral Cavity Carcinoma)
Method in brief: as §1

[2] = tested on: CGTH-W-1 (Thyroid Gland Carcinoma)
Method in brief: as §1

COLO-792 (Melanoma) = tested on: COLO-792 (Melanoma)
Method in brief: as §1

EB2 (Burkitt's Lymphoma) = tested on: EB2 (Burkitt's Lymphoma)
Method in brief: as §1

EW-7 (Ewing's Sarcoma) = tested on: EW-7 (Ewing's Sarcoma)
Method in brief: as §1

[3] = tested on: HCC1428 (Breast Carcinoma)
Method in brief: as §1

HCC70 (Breast Carcinoma) = tested on: HCC70 (Breast Carcinoma)
Method in brief: as §1

[4] = tested on: JHH-2 (Hepatocellular Carcinoma)
Method in brief: as §1

[5] = tested on: Jurkat (T-Lymphoblastic Leukemia)
Method in brief: as §1

[6] = tested on: KYSE-220 (Esophageal Squamous Cell Carcinoma)
Method in brief: as §1

[7] = tested on: NCI-H1651 (Lung Adenocarcinoma)
Method in brief: as §1

[8] = tested on: NCI-H1703 (Squamous Cell Lung Carcinoma)
Method in brief: as §1

[9] = tested on: NCI-H2087 (Lung Adenocarcinoma)
Method in brief: as §1

[10] = tested on: NCI-H2228 (Lung Adenocarcinoma)
Method in brief: as §1

RH-41 (Rhabdomyosarcoma) = tested on: RH-41 (Rhabdomyosarcoma)
Method in brief: as §1

[11] = tested on: SK-HEP-1 (Hepatocellular Carcinoma)
Method in brief: as §1

[12] = tested on: UACC-812 (Breast Carcinoma)
Method in brief: as §1

[13] = tested on: huH-1 (Hepatocellular Carcinoma)
Method in brief: as §1

KP-N-YN (Neuroblastoma) = tested on: KP-N-YN (Neuroblastoma)
Method in brief: as §1

| Structure (SMILES) | Bliss excess (A204 (Rhabdomyosarcoma)) | Bliss excess [1] | Bliss excess [2] | Bliss excess (COLO-792 (Melanoma)) | Bliss excess (EB2 (Burkitt's Lymphoma)) | Bliss excess (EW-7 (Ewing's Sarcoma)) | Bliss excess [3] | Bliss excess (HCC70 (Breast Carcinoma)) | Bliss excess [4] | Bliss excess [5] | Bliss excess [6] | Bliss excess [7] | Bliss excess [8] | Bliss excess [9] | Bliss excess [10] | Bliss excess (RH-41 (Rhabdomyosarcoma)) | Bliss excess [11] | Bliss excess [12] | Bliss excess [13] | Bliss excess (KP-N-YN (Neuroblastoma)) |
| --- | --- | --- | --- | --- | --- | --- | --- | --- | --- | --- | --- | --- | --- | --- | --- | --- | --- | --- | --- | --- |
| CN(C)CCCOc1ccc(-c2ccc3ncc4c(c3c2)n(C2CCOCC2)c(=O)n4C)cn1 [AZD0156] + O=C(c1cc(Cc2n[nH]c(=O)c3ccccc23)ccc1F)N1CCN(C(=O)C2CC2)CC1 [Olaparib] (first compound max 3 µM, partner max 3 µM) | -0.0255 | 0.0602 | 0.0361 | 0.0844 | 0.0892 | 0.119 | 0.0051 | -0.0548 | 0.0203 | 0.174 | 0.191 | 0.132 | 0.0821 | -0.043 | 0.0272 | 0.0128 | 0.0576 | -0.113 | -0.0726 | – |
| CC(=O)c1c(C)c2cnc(Nc3ccc(N4CCNCC4)cn3)nc2n(C2CCCC2)c1=O [Palbociclib] + Cn1cnc2c(F)c(Nc3ccc(Br)cc3Cl)c(C(=O)NOCCO)cc21 [Selumetinib] (first compound max 10 µM, 7x7, partner max 10 µM) | -0.0261 | -0.0132 | -0.036 | -0.0127 | -0.018 | 0.0709 | -0.0235 | 0.055 | 0.0347 | -0.0297 | 0.0235 | -0.0391 | 0.0303 | -0.0101 | -0.0822 | -0.0076 | -0.114 | – | -0.0455 | -0.0253 |
| CC(=O)c1c(C)c2cnc(Nc3ccc(N4CCNCC4)cn3)nc2n(C2CCCC2)c1=O [Palbociclib] + Cc1c2c(nn1C)CSCc1cc(n(C)n1)CSc1cc(c3ccccc3c1)OCCCc1c(C(=O)O)n(C)c3c-2c(Cl)ccc13 [AZD5991] (first compound max 10 µM, 7x7, partner max 1 µM) | -0.026 | -0.0869 | -0.0037 | -0.105 | -0.0352 | -0.0005 | -0.033 | -0.0171 | -0.0475 | -0.083 | -0.0645 | -0.0239 | -0.0636 | -0.0561 | -0.0537 | -0.0028 | 0.0434 | – | -0.0422 | 0.0562 |
| CS(=O)(=O)CCNCc1ccc(-c2ccc3ncnc(Nc4ccc(OCc5cccc(F)c5)c(Cl)c4)c3c2)o1 [Lapatinib] + NC1(c2ccc(-c3nc4ccn5c(=O)[nH]nc5c4cc3-c3ccccc3)cc2)CCC1 [MK-2206] (first compound max 10 µM, 7x7, partner max 10 µM) | – | – | 0.0174 | – | -0.0348 | 0.0239 | 0.0023 | 0.024 | -0.0371 | – | -0.0099 | -0.0008 | -0.0136 | -0.0221 | – | – | -0.0936 | – | – | 0.0876 |
| NC1(C(=O)N[C@@H](CCO)c2ccc(Cl)cc2)CCN(c2ncnc3[nH]ccc23)CC1 [Capivasertib] + C[C@@H]1COCCN1C2=NC(=NC(=C2)C3(CC3)[S@](=N)(=O)C)C4=C5C=CNC5=NC=C4 [AZD6738] (first compound max 10 µM, 7x7, partner max 10 µM) | -0.0201 | -0.0792 | -0.0508 | 0.0487 | -0.0714 | 0.0021 | -0.0066 | -0.0586 | -0.0651 | -0.0403 | -0.0523 | -0.0528 | -0.0292 | -0.0071 | -0.0617 | -0.0389 | -0.0744 | – | -0.0533 | -0.0395 |
| CN(CCO)CC[C@H](CSc1ccccc1)Nc1ccc(S(=O)(=O)NC(=O)c2ccc(N3CCC([C@@H](O)c4ccccc4-c4ccc(Cl)cc4)CC3)cc2)cc1S(=O)(=O)C(F)(F)F [AZD4320] + CN(C)CCCOc1ccc(-c2ccc3ncc4c(c3c2)n(C2CCOCC2)c(=O)n4C)cn1 [AZD0156] (first compound max 1 µM, 7x7, partner max 1 µM) | -0.0468 | -0.0136 | -0.0346 | – | -0.0028 | 0.0524 | 0.0307 | -0.0321 | -0.0486 | -0.0012 | -0.0385 | -0.026 | -0.0127 | -0.0496 | -0.0225 | -0.0265 | 0.0146 | -0.0283 | -0.0419 | -0.0064 |
| CS(=O)(=O)CCNCc1ccc(-c2ccc3ncnc(Nc4ccc(OCc5cccc(F)c5)c(Cl)c4)c3c2)o1 [Lapatinib] + C[C@@H](Oc1cc(-c2cnn(C3CCNCC3)c2)cnc1N)c1c(Cl)ccc(F)c1Cl [Crizotinib] (first compound max 10 µM, 7x7, partner max 10 µM) | -0.0279 | -0.0589 | -0.0294 | -0.0237 | -0.0705 | -0.0465 | -0.043 | -0.0208 | -0.0831 | 0.0331 | -0.0397 | -0.0331 | -0.0733 | -0.0499 | 0.0163 | -0.0054 | -0.0259 | – | -0.0577 | -0.0084 |
| NC1(C(=O)N[C@@H](CCO)c2ccc(Cl)cc2)CCN(c2ncnc3[nH]ccc23)CC1 [Capivasertib] + CC(C)n1c(=O)n(C)c2cnc3cc(F)c(-c4ccc(OCCCN5CCCCC5)nc4)cc3c21 [AZD1390] (first compound max 10 µM, 7x7, partner max 0.3 µM) | -0.0575 | -0.0886 | -0.0273 | -0.0755 | 0.0109 | -0.0311 | -0.0538 | -0.023 | -0.0449 | -0.047 | -0.0659 | -0.0404 | -0.0132 | -0.0378 | -0.0728 | -0.0364 | -0.0321 | – | -0.0802 | -0.112 |
| NC1(C(=O)N[C@@H](CCO)c2ccc(Cl)cc2)CCN(c2ncnc3[nH]ccc23)CC1 [Capivasertib] + CC(=O)c1c(C)c2cnc(Nc3ccc(N4CCNCC4)cn3)nc2n(C2CCCC2)c1=O [Palbociclib] (first compound max 10 µM, 7x7, partner max 10 µM) | -0.0496 | -0.0242 | 0.0111 | -0.0643 | -0.0213 | 0.01 | -0.0201 | 0.0198 | -0.0028 | 0.0314 | 0.0407 | -0.0393 | 0.0189 | -0.03 | -0.0216 | -0.047 | -0.109 | – | -0.0462 | -0.043 |
| CCc1c2c(nc3ccc(O)cc13)-c1cc3c(c(=O)n1C2)COC(=O)[C@]3(O)CC [SN-38] + O=C(c1cc(Cc2n[nH]c(=O)c3ccccc23)ccc1F)N1CCN(C(=O)C2CC2)CC1 [Olaparib] (first compound max 0.3 µM, 7x7, partner max 10 µM) | – | – | 0.0526 | 0.0356 | 0.0348 | 0.0538 | – | 0.0458 | -0.0442 | – | 0.0078 | 0.0252 | 0.0271 | 0.017 | – | – | 0.0077 | 0.0333 | 0.0467 | -0.0038 |
| NC1(C(=O)N[C@@H](CCO)c2ccc(Cl)cc2)CCN(c2ncnc3[nH]ccc23)CC1 [Capivasertib] + CCN(CCO)CCCOc1ccc2c(Nc3cc(CC(=O)Nc4cccc(F)c4)[nH]n3)ncnc2c1 [AZD2811] (first compound max 10 µM, 7x7, partner max 1 µM) | -0.0058 | -0.0783 | 0.0234 | 0.0486 | -0.0299 | 0.0251 | 0.0066 | -0.0506 | -0.0437 | -0.0289 | -0.0154 | -0.0381 | -0.0237 | -0.0243 | -0.041 | 0.0097 | -0.0553 | – | -0.0695 | -0.0515 |
| CN(CCO)CC[C@H](CSc1ccccc1)Nc1ccc(S(=O)(=O)NC(=O)c2ccc(N3CCC([C@@H](O)c4ccccc4-c4ccc(Cl)cc4)CC3)cc2)cc1S(=O)(=O)C(F)(F)F [AZD4320] + CS(=O)(=O)CCNCc1ccc(-c2ccc3ncnc(Nc4ccc(OCc5cccc(F)c5)c(Cl)c4)c3c2)o1 [Lapatinib] (first compound max 1 µM, 7x7, partner max 10 µM) | – | – | -0.0184 | – | -0.104 | 0.138 | – | 0.0536 | 0.0312 | – | 0.0087 | 0.0395 | 0.0162 | -0.0033 | – | – | -0.0958 | -0.0066 | – | 0.0811 |
| NC1(C(=O)N[C@@H](CCO)c2ccc(Cl)cc2)CCN(c2ncnc3[nH]ccc23)CC1 [Capivasertib] + Cn1cnc2c(F)c(Nc3ccc(Br)cc3Cl)c(C(=O)NOCCO)cc21 [Selumetinib] (first compound max 10 µM, 7x7, partner max 10 µM) | 0.0013 | 0.0108 | 0.0262 | 0.0139 | -0.0049 | 0.0429 | 0.0149 | 0.18 | 0.016 | 0.009 | 0.0644 | -0.0156 | 0.0358 | 0.016 | 0.017 | 0.0251 | -0.0083 | – | -0.0199 | 0.053 |
| NC1(C(=O)N[C@@H](CCO)c2ccc(Cl)cc2)CCN(c2ncnc3[nH]ccc23)CC1 [Capivasertib] + COc1nnc2ccc(N3CCC(c4ccc(OCCN5CCN(C)C(=O)[C@H]5C)cc4)CC3)nn12 [AZD5153] (first compound max 10 µM, 7x7, partner max 1 µM) | 0.006 | -0.0366 | 0.0068 | 0.133 | -0.0966 | -0.0004 | -0.0596 | 0.0422 | 0.0064 | 0.0593 | -0.0248 | -0.0361 | 0.0357 | 0.0179 | 0.036 | 0.0198 | -0.0784 | – | 0.0064 | -0.0718 |
| CC(=O)c1c(C)c2cnc(Nc3ccc(N4CCNCC4)cn3)nc2n(C2CCCC2)c1=O [Palbociclib] + CC1(C)CCC(CN2CCN(c3ccc(C(=O)NS(=O)(=O)c4ccc(NCC5CCOCC5)c([N+](=O)[O-])c4)c(Oc4cnc5[nH]ccc5c4)c3)CC2)=C(c2ccc(Cl)cc2)C1 [Venetoclax] (first compound max 10 µM, 7x7, partner max 1 µM) | 0.0194 | -0.0483 | -0.0219 | 0.0153 | -0.044 | 0.0071 | -0.0378 | -0.0356 | 0.0031 | 0.0157 | -0.081 | -0.038 | 0.0004 | -0.0596 | 0.005 | -0.0019 | -0.167 | – | -0.0529 | -0.0844 |
